# Assay results from patent US10004701B2, “Methods and compositions for treating infection” (UNIVERSITY OF ROCHESTER, priority 2012, dated 2018).
# Counter-ions that a name gives are not always drawn. Like-named read-outs stand apart in the source and are kept apart here.
# What was measured:
# Experiment in all cases: AK assay 384-well format, Prestwick library screening
# [1] = tested on: E. cloacae; assay type: cell-based, Enterobacter cloacae; settings: Enterobacter cloacae, 3 h, 50 μM final drug concentration
# [2] = tested on: S. aureus strain USA300-0114; assay type: cell-based, Staphylococcus aureus; settings: Staphylococcus aureus, USA300, 3 h, 50 μM final drug concentration
# [3] = tested on: K. pneumoniae; assay type: cell-based, Klebsiella pneumoniae; settings: Klebsiella pneumoniae, 3 h, 50 μM final drug concentration
# [4] = tested on: P. aeruginosa; assay type: cell-based, Pseudomonas aeruginosa; settings: Pseudomonas aeruginosa, 3 h, 50 μM final drug concentration
# [5] = tested on: E. coli; assay type: cell-based, Escherichia coli; settings: Escherichia coli, 3 h, 50 μM final drug concentration
# [6] = tested on: A. baumannii strain 98-37-09; assay type: cell-based, Acinetobacter baumannii; settings: Acinetobacter baumannii, 983709, 3 h, 50 μM final drug concentration
# [7] = tested on: E. faecium; assay type: cell-based, Enterococcus faecium; settings: Enterococcus faecium, 3 h, 50 μM final drug concentration
# [8] = planktonic E. cloacae, positive cutoff 3-fold increase, read-out: AK-based Prestwick library screening result, E. cloacae (fold increase in extracellular AK activity)
# [9] = planktonic S. aureus, positive cutoff 3-fold increase, read-out: AK-based Prestwick library screening result, S. aureus (fold increase in extracellular AK activity)
# [10] = planktonic K. pneumoniae, positive cutoff 3-fold increase, read-out: AK-based Prestwick library screening result, K. pneumoniae (fold increase in extracellular AK activity)
# [11] = planktonic P. aeruginosa, positive cutoff 3-fold increase, read-out: AK-based Prestwick library screening result, P. aeruginosa (fold increase in extracellular AK activity)
# [12] = planktonic E. coli, positive cutoff 3-fold increase, read-out: AK-based Prestwick library screening result, E. coli (fold increase in extracellular AK activity)
# [13] = planktonic A. baumannii, positive cutoff 3-fold increase, read-out: AK-based Prestwick library screening result, A. baumannii (fold increase in extracellular AK activity)
# [14] = planktonic E. faecium, positive cutoff 3-fold increase, read-out: AK-based Prestwick library screening result, E. faecium (fold increase in extracellular AK activity)
# [15] = planktonic, cutoff for positive 3-fold increase, read-out: AK-based Prestwick Library Screening Results, E. cloacae (fold increase in extracellular AK activity)
# [16] = planktonic, cutoff for positive 3-fold increase, read-out: AK-based Prestwick Library Screening Results, S. aureus (fold increase in extracellular AK activity)
# [17] = planktonic, cutoff for positive 3-fold increase, read-out: AK-based Prestwick Library Screening Results, K. pneumoniae (fold increase in extracellular AK activity)
# [18] = planktonic, cutoff for positive 3-fold increase, read-out: AK-based Prestwick Library Screening Results, P. aeruginosa (fold increase in extracellular AK activity)
# [19] = planktonic, cutoff for positive 3-fold increase, read-out: AK-based Prestwick Library Screening Results, E. coli (fold increase in extracellular AK activity)
# [20] = planktonic, cutoff for positive 3-fold increase, read-out: AK-based Prestwick Library Screening Results, A. baumannii (fold increase in extracellular AK activity)
# [21] = planktonic, cutoff for positive 3-fold increase, read-out: AK-based Prestwick Library Screening Results, E. faecium (fold increase in extracellular AK activity)
# [22] = cutoff for positive-scoring molecules 3-fold increase, read-out: AK-based Prestwick Library Screening Results, E. cloacae (fold increase in extracellular AK activity)
# [23] = cutoff for positive-scoring molecules 3-fold increase, read-out: AK-based Prestwick Library Screening Results, S. aureus (fold increase in extracellular AK activity)
# [24] = cutoff for positive-scoring molecules 3-fold increase, read-out: AK-based Prestwick Library Screening Results, K. pneumoniae (fold increase in extracellular AK activity)
# [25] = cutoff for positive-scoring molecules 3-fold increase, read-out: AK-based Prestwick Library Screening Results, P. aeruginosa (fold increase in extracellular AK activity)
# [26] = cutoff for positive-scoring molecules 3-fold increase, read-out: AK-based Prestwick Library Screening Results, E. coli (fold increase in extracellular AK activity)
# [27] = cutoff for positive-scoring molecules 3-fold increase, read-out: AK-based Prestwick Library Screening Results, A. baumannii (fold increase in extracellular AK activity)
# [28] = cutoff for positive-scoring molecules 3-fold increase, read-out: AK-based Prestwick Library Screening Results, E. faecium (fold increase in extracellular AK activity)
# [29] = planktonic, cutoff for positive-scoring molecules 3-fold increase, read-out: AK-based Prestwick Library Screening Results, E. cloacae (fold increase in extracellular AK activity)
# [30] = planktonic, cutoff for positive-scoring molecules 3-fold increase, read-out: AK-based Prestwick Library Screening Results, S. aureus (fold increase in extracellular AK activity)
# [31] = planktonic, cutoff for positive-scoring molecules 3-fold increase, read-out: AK-based Prestwick Library Screening Results, K. pneumoniae (fold increase in extracellular AK activity)
# [32] = planktonic, cutoff for positive-scoring molecules 3-fold increase, read-out: AK-based Prestwick Library Screening Results, P. aeruginosa (fold increase in extracellular AK activity)
# [33] = planktonic, cutoff for positive-scoring molecules 3-fold increase, read-out: AK-based Prestwick Library Screening Results, E. coli (fold increase in extracellular AK activity)
# [34] = planktonic, cutoff for positive-scoring molecules 3-fold increase, read-out: AK-based Prestwick Library Screening Results, A. baumannii (fold increase in extracellular AK activity)
# [35] = planktonic, cutoff for positive-scoring molecules 3-fold increase, read-out: AK-based Prestwick Library Screening Results, E. faecium (fold increase in extracellular AK activity)
smiles,measurement,setting,value
CNNCc1ccc(C(=O)NC(C)C)cc1 [Procarbazine hydrochloride],fold induction at 50 µM,[1]; [8],1.7
same,fold induction at 50 µM,[2]; [9],1.1
same,fold induction at 50 µM,[3]; [10],1.1
same,fold induction at 50 µM,[4]; [11],0.9
same,fold induction at 50 µM,[5]; [12],1
same,fold induction at 50 µM,[6]; [13],1.1
same,fold induction at 50 µM,[7]; [14],1
CN1CCN(CCCN2c3ccccc3Sc3ccc(Cl)cc32)CC1 [Prochlorperazine dimaleate],fold induction at 50 µM,[1]; [15],2
same,fold induction at 50 µM,[2]; [16],1.1
same,fold induction at 50 µM,[3]; [17],1.2
same,fold induction at 50 µM,[4]; [18],1.2
same,fold induction at 50 µM,[5]; [19],1.2
same,fold induction at 50 µM,[6]; [20],1.6
same,fold induction at 50 µM,[7]; [21],1.1
OC(CCN1CCCC1)(c1ccccc1)C1CCCCC1 (stereo not drawn) [Procyclidine hydrochloride],fold induction at 50 µM,[1]; [22],1.8
same,fold induction at 50 µM,[2]; [23],1.2
same,fold induction at 50 µM,[3]; [24],0.9
same,fold induction at 50 µM,[4]; [25],1.2
same,fold induction at 50 µM,[5]; [26],1.4
same,fold induction at 50 µM,[6]; [27],1.1
same,fold induction at 50 µM,[7]; [28],1.1
CC(=O)[C@H]1CC[C@H]2[C@@H]3CCC4=CC(=O)CC[C@]4(C)[C@H]3CC[C@]12C [Progesterone],fold induction at 50 µM,[1]; [15],1.7
same,fold induction at 50 µM,[2]; [16],1.1
same,fold induction at 50 µM,[3]; [17],1.1
same,fold induction at 50 µM,[4]; [18],1
same,fold induction at 50 µM,[5]; [19],1
same,fold induction at 50 µM,[6]; [20],1.1
same,fold induction at 50 µM,[7]; [21],1.1
CCCN(CCC)C(=O)C(CCC(=O)O)NC(=O)c1ccccc1 (stereo not drawn) [Proglumide],fold induction at 50 µM,"[1]; planktonic E. cloacae, 384-well, cutoff for positive-scoring molecules 3-fold increase, read-out: AK-based Prestwick Library Screening Results: E. cloacae (increase in extracellular AK activity)",1.5
same,fold induction at 50 µM,"[2]; planktonic S. aureus, 384-well, cutoff for positive-scoring molecules 3-fold increase, read-out: AK-based Prestwick Library Screening Results: S. aureus (increase in extracellular AK activity)",1.1
same,fold induction at 50 µM,"[3]; planktonic K. pneumoniae, 384-well, cutoff for positive-scoring molecules 3-fold increase, read-out: AK-based Prestwick Library Screening Results: K. pneumoniae (increase in extracellular AK activity)",1.2
same,fold induction at 50 µM,"[4]; planktonic P. aeruginosa, 384-well, cutoff for positive-scoring molecules 3-fold increase, read-out: AK-based Prestwick Library Screening Results: P. aeruginosa (increase in extracellular AK activity)",1.1
same,fold induction at 50 µM,"[5]; planktonic E. coli, 384-well, cutoff for positive-scoring molecules 3-fold increase, read-out: AK-based Prestwick Library Screening Results: E. coli (increase in extracellular AK activity)",1.3
same,fold induction at 50 µM,"[6]; planktonic A. baumannii, 384-well, cutoff for positive-scoring molecules 3-fold increase, read-out: AK-based Prestwick Library Screening Results: A. baumannii (increase in extracellular AK activity)",1.3
same,fold induction at 50 µM,"[7]; planktonic E. faecium, 384-well, cutoff for positive-scoring molecules 3-fold increase, read-out: AK-based Prestwick Library Screening Results: E. faecium (increase in extracellular AK activity)",1
[H]/N=C(\N/C(=N/[H])Nc1ccc(Cl)cc1)NC(C)C [Proguanil hydrochloride],fold induction at 50 µM,[1]; [8],1.1
same,fold induction at 50 µM,[2]; [9],0.9
same,fold induction at 50 µM,[3]; [10],0.7
same,fold induction at 50 µM,[4]; [11],0.8
same,fold induction at 50 µM,[5]; [12],0.9
same,fold induction at 50 µM,[6]; [13],0.9
same,fold induction at 50 µM,[7]; [14],0.8
CN(C)CCCN1c2ccccc2Sc2ccccc21 [Promazine hydrochloride],fold induction at 50 µM,[1]; [22],1.7
same,fold induction at 50 µM,[2]; [23],1.4
same,fold induction at 50 µM,[3]; [24],0.8
same,fold induction at 50 µM,[4]; [25],1.1
same,fold induction at 50 µM,[5]; [26],1.2
same,fold induction at 50 µM,[6]; [27],0.9
same,fold induction at 50 µM,[7]; [28],1
CC(CN1c2ccccc2Sc2ccccc21)N(C)C (stereo not drawn) [Promethazine hydrochloride],fold induction at 50 µM,[1]; [29],0.5
same,fold induction at 50 µM,[2]; [30],0.5
same,fold induction at 50 µM,[3]; [31],0.5
same,fold induction at 50 µM,[4]; [32],0.6
same,fold induction at 50 µM,[5]; [33],0.6
same,fold induction at 50 µM,[6]; [34],0.6
same,fold induction at 50 µM,[7]; [35],0.8
CC(C)NCC(O)c1ccc2ccccc2c1 (stereo not drawn) [Pronethalol hydrochloride],fold induction at 50 µM,[1]; [22],0.9
same,fold induction at 50 µM,[2]; [23],0.6
same,fold induction at 50 µM,[3]; [24],0.6
same,fold induction at 50 µM,[4]; [25],0.6
same,fold induction at 50 µM,[5]; [26],0.7
same,fold induction at 50 µM,[6]; [27],0.6
same,fold induction at 50 µM,[7]; [28],0.9
CCCNCC(O)COc1ccccc1C(=O)CCc1ccccc1 (stereo not drawn) [Propafenone hydrochloride],fold induction at 50 µM,"[1]; planktonic E. cloacae, cutoff for positive-scoring molecules 3-fold increase, read-out: AK-based Prestwick Library Screening Results, E. cloacae (increase in extracellular AK activity)",0.8
same,fold induction at 50 µM,"[2]; planktonic S. aureus, cutoff for positive-scoring molecules 3-fold increase, read-out: AK-based Prestwick Library Screening Results, S. aureus (increase in extracellular AK activity)",0.7
same,fold induction at 50 µM,"[3]; planktonic K. pneumoniae, cutoff for positive-scoring molecules 3-fold increase, read-out: AK-based Prestwick Library Screening Results, K. pneumoniae (increase in extracellular AK activity)",0.6
same,fold induction at 50 µM,"[4]; planktonic P. aeruginosa, cutoff for positive-scoring molecules 3-fold increase, read-out: AK-based Prestwick Library Screening Results, P. aeruginosa (increase in extracellular AK activity)",0.7
same,fold induction at 50 µM,"[5]; planktonic E. coli, cutoff for positive-scoring molecules 3-fold increase, read-out: AK-based Prestwick Library Screening Results, E. coli (increase in extracellular AK activity)",1
same,fold induction at 50 µM,"[6]; planktonic A. baumannii, cutoff for positive-scoring molecules 3-fold increase, read-out: AK-based Prestwick Library Screening Results, A. baumannii (increase in extracellular AK activity)",0.7
same,fold induction at 50 µM,"[7]; planktonic E. faecium, cutoff for positive-scoring molecules 3-fold increase, read-out: AK-based Prestwick Library Screening Results, E. faecium (increase in extracellular AK activity)",1
CC(C)[N+](C)(CCOC(=O)C1c2ccccc2Oc2ccccc21)C(C)C [Propantheline bromide],fold induction at 50 µM,[1]; [29],1.3
same,fold induction at 50 µM,[2]; [30],0.8
same,fold induction at 50 µM,[3]; [31],0.8
same,fold induction at 50 µM,[4]; [32],0.9
same,fold induction at 50 µM,[5]; [33],0.9
same,fold induction at 50 µM,[6]; [34],1
same,fold induction at 50 µM,[7]; [35],0.8
CCCOc1ccc(C(=O)OCCN(CC)CC)cc1N [Proparacaine hydrochloride],fold induction at 50 µM,[1]; [22],1.2
same,fold induction at 50 µM,[2]; [23],1.2
same,fold induction at 50 µM,[3]; [24],1.1
same,fold induction at 50 µM,[4]; [25],1.1
same,fold induction at 50 µM,[5]; [26],1.3
same,fold induction at 50 µM,[6]; [27],1.4
same,fold induction at 50 µM,[7]; [28],1
